The results in this text go back to ChEMBL document CHEMBL6103608, “Emerging RAS Inhibitors: Heterocyclic and Spirocyclic Compounds in Cancer Therapeutics” (ACS Med Chem Lett, 2025).

The test can be described thus: Inhibition of NRAS G12D mutant (unknown origin) expressed in human THP-1 cells assessed as reduction in ERK phosphorylation incubated for 2 hrs by AlphaLISA SureFire Ultra assay. In kind it is cell-based. Conditions: THP-1, 2 h.

For the compound `C[C@@H]1OC2=NC(c3cc(N)cc(F)c3OC(F)(F)F)=C(F)C3C(Cl)=C(CCN(C)C)N=C(C23)N2C[C@H]3CC[C@H](N3)[C@@H]12` (stereo partly specified), the IC50 turned out to be 0.803 nM.
